According to patent US11795165B2, “Tetrahydro-benzoazepine glycosidase inhibitors” (Asceneuron SA, priority 2018, dated 2023):

What follows are compounds tested against His-Tagged hOGA (human O-GlcNAcase) (Homo sapiens (Human), UniProt O60502) (assay: Human O-GlcNAcase enzyme inhibition assay (OGA enzyme inhibition assay)). Details: His-Tagged hOGA 20 nM, FL-GlcNAc 10 μM, 60 min at room temperature, pH 6.5; activity classes.
Type: biochemical
Protocol: Example B01: Human O-GlcNAcase Enzyme Inhibition Assay
5 μl of the appropriate concentration of a solution of inhibitor in McIlvaine's Buffer (pH 6.5) in 2% DMSO (for a dose response curve calculation) is added into each well of a 384-well plate (Greiner, 781900). Then, 20 nM of His-Tagged hOGA and 10 μM of FL-GlcNAc (Fluorescein mono-beta-D-(2-deoxy-2-N-acetyl) glucopyranoside; Marker Gene Technologies Inc, M1485) were added to the 384-well plate for a final volume of 20 μl. After incubation for 60 min at room temperature, the reaction was terminated by the addition of 10 μL of stop buffer (200 mM glycine, pH 10.75). The level of fluorescence (Δexc 485 nm; (Δemm 520 nm) was read on a PHERAstar machine. The amount of fluorescence measured was plotted against the concentration of inhibitor to produce a sigmoidal dose response curve to calculate an IC50. All individual data was corrected by subtraction of the background (Thiamet 3 uM=100% inhibition) whilst 0.5% DMSO was considered as the control value (no inhibition).

His-Tagged hOGA (human O-GlcNAcase), sequence (O60502 whole entry): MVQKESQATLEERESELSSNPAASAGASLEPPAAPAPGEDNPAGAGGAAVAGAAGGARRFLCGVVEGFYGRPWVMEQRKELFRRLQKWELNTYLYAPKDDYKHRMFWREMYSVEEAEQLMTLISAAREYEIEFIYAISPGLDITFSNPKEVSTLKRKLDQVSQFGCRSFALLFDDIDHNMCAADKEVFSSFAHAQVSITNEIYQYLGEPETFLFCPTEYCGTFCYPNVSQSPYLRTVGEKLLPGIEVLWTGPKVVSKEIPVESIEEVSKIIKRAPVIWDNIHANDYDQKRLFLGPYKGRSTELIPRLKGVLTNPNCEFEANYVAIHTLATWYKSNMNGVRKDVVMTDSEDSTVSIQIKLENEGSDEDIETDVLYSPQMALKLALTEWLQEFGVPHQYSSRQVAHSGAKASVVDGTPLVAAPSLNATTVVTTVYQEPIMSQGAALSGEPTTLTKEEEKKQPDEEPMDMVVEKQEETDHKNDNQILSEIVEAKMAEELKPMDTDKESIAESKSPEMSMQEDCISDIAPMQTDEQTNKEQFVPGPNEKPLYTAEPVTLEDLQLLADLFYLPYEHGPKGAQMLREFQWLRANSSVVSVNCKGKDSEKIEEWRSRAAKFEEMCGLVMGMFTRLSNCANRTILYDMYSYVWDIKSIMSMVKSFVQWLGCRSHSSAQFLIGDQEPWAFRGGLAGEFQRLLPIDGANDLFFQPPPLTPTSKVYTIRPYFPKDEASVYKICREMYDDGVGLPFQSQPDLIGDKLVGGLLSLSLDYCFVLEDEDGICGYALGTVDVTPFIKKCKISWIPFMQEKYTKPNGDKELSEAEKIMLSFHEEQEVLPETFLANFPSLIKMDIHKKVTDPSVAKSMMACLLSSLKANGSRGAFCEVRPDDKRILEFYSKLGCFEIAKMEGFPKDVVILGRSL

First: CSc1ccc2c(c1)CCN(C(C)c1ccc3scnc3c1)CC2 (racemic) [Example 111]
Second: COc1ccc2c(c1)CCN(C(C)c1ccc3scnc3c1)CC2 (single isomer, unassigned) [Example 6]
The IC50 of the first is lower: under 50 nM for the first, 200 to 1000 nM for the second. The first is the more potent here.

Compared with `CC(c1ccc2scnc2c1)N1CCc2ccccc2CC1` (single isomer, unassigned) [Example 21], `COc1ccc2c(c1)CCN(Cc1ccc3scnc3c1)C(C)C2` (racemic) [Example 29, 5-((7-methoxy-2-methyl-1,2,4,5-tetrahydro-3H-benzo[d]azepin-3-yl)methyl)benzo[d]thiazole] is higher in IC50: under 50 nM for the first, 1000 to 10000 nM for the second.

First: CC(c1ccc2scnc2c1)N1CCc2ccc(O)cc2CC1 (racemic) [Example 33, 3-(1-(benzo[d]thiazol-5-yl)ethyl)-2,3,4,5-tetrahydro-1H-benzo[d]azepin-7-ol]
Second: CSc1ccc2c(c1)CCCN(C(C)c1ccc3scnc3c1)C2 (racemic) [Example 112]
The IC50 of the first is lower: under 50 nM for the first, 200 to 1000 nM for the second. The first is the more potent here.

`CC(=O)Nc1cnc2c(c1)CCN(C(C)c1ccc3scnc3c1)CC2` (racemic) [Example 92] and `CC(c1ccc2scnc2c1)N1CCc2ccc(Br)cc2CC1` (racemic) [Example 14, 5-(1-(7-bromo-1,2,4,5-tetrahydro-3H-benzo[d]azepin-3-yl)ethyl)benzo[d]thiazole] cannot be ordered by IC50: under 50 nM for the first, under 50 nM for the second.

First: COc1ccc2c(c1Cl)CCN(C(C)c1ccc3scnc3c1)CC2 (racemic) [Example 10, 5-(1-(6-chloro-7-methoxy-1,2,4,5-tetrahydro-3H-benzo[d]azepin-3-yl)ethyl)benzo[d]thiazole]
Second: CC(C)COc1ccc2c(c1)CCN(C(C)c1ccc3scnc3c1)CC2 (racemic) [Example 26, 5-(1-(7-isobutoxy-1,2,4,5-tetrahydro-3H-benzo[d]azepin-3-yl)ethyl)benzo[d]thiazole]
The IC50 of the first is lower: 50 to 200 nM for the first, 200 to 1000 nM for the second. The first is the more potent here.

First: COc1ccc2c(c1)CCN([C@@H](C)c1ccc3scnc3c1)CC2 [Example 5, (S)-5-(1-(7-methoxy-1,2,4,5-tetrahydro-3H-benzo[d]azepin-3-yl)ethyl)benzo[d]thiazole]
Second: CC(=O)Nc1ncc(CN2CCCc3ccccc3C2C)s1 (racemic) [Example 122]
The IC50 of the first is lower: under 50 nM for the first, 1000 to 10000 nM for the second. The first is the more potent here.

First: CC(c1ccc2scnc2c1)N1CCc2cnc(N)nc2CC1 (racemic) [Example 108]
Second: CC(c1ccc2scnc2c1)N1CCCc2ncc(NS(=O)(=O)C3CC3)cc2C1 (racemic) [Example 121]
The IC50 of the first is lower: under 50 nM for the first, 200 to 1000 nM for the second.

First: CC(c1ccc2scnc2c1)N1CCc2cc(S(C)(=O)=O)cnc2CC1 (racemic) [Example 51]
Second: COc1ccc2c(c1)CCN(Cc1ccc3c(c1)OCCO3)C(C)C2 (racemic) [Example 30, 3-((2,3-dihydrobenzo[b][1,4]dioxin-6-yl)methyl)-7-methoxy-2-methyl-2,3,4,5-tetrahydro-1H-benzo[d]azepine]
The IC50 of the first is lower: under 50 nM for the first, 1000 to 10000 nM for the second. The first is the more potent here.

First: CC(=O)Nc1ccc2c(c1)CCCN(C(C)c1ccc3scnc3c1)C2 (racemic) [Example 107]
Second: CC(c1ccc2scnc2c1)N1CCc2ccc(-c3ccccn3)cc2CC1 (racemic) [Example 32, 5-(1-(7-(pyridin-2-yl)-1,2,4,5-tetrahydro-3H-benzo[d]azepin-3-yl)ethyl)benzo[d]thiazole]
The IC50 of the first is lower: 200 to 1000 nM for the first, 1000 to 10000 nM for the second. The first is the more potent here.

`CC(c1ccc2scnc2c1)N1CCc2ccccc2CC1` (racemic) [Example 20, 5-(1-(1,2,4,5-tetrahydro-3H-benzo[d]azepin-3-yl)ethyl)benzo[d]thiazole] and `CC(c1ccc2scnc2c1)N1CCc2ccc(C#N)cc2CC1` (racemic) [Example 16, 3-(1-(benzo[d]thiazol-5-yl)ethyl)-2,3,4,5-tetrahydro-1H-benzo[d]azepine-7-carbonitrile] cannot be ordered by IC50: under 50 nM for the first, under 50 nM for the second.

`COc1ccc2c(c1)CCN(C(C)c1cnc3c(c1)OCC3)CC2` (racemic) [Example 34, 6-(1-(7-methoxy-1,2,4,5-tetrahydro-3H-benzo[d]azepin-3-yl)ethyl)-2,3-dihydrofuro[3,2-b]pyridine] and `COc1ccc2c(n1)CCN(C(C)c1ccc3scnc3c1)CC2` (racemic) [Example 31, 5-(1-(2-methoxy-5,6,8,9-tetrahydro-7H-pyrido[2,3-d]azepin-7-yl)ethyl)benzo[d]thiazole] cannot be ordered by IC50: under 50 nM for the first, under 50 nM for the second.

First: CSc1ccc2c(c1)CCN(C(C)c1ccc3scnc3c1)CC2 (single isomer, unassigned) [Example 118]
Second: 5-(1-(7-methoxy-2-methyl-1,2,4,5-tetrahydro-3H-benzo[d]azepin-3-yl)ethyl)benzo[d]thiazole [Example 19]
The IC50 of the first is higher: 1000 to 10000 nM for the first, 50 to 200 nM for the second.

Compared with `COc1cc2c(cc1Cl)CCN(C(C)c1ccc3scnc3c1)CC2` (racemic) [Example 11, 5-(1-(7-chloro-8-methoxy-1,2,4,5-tetrahydro-3H-benzo[d]azepin-3-yl)ethyl)benzo[d]thiazole], `CC(c1ccc2scnc2c1)N1CCCc2cc(C#N)ccc2C1` (racemic) [Example 15, 2-(1-(benzo[d]thiazol-5-yl)ethyl)-2,3,4,5-tetrahydro-1H-benzo[c]azepine-7-carbonitrile] is higher in IC50: under 50 nM for the first, 200 to 1000 nM for the second.

First: CC(c1ccc2scnc2c1)N1CCc2cc(S(C)(=N)=O)cnc2CC1 (racemic) [Example 52]
Second: COc1ccc2c(c1)CCN(C(C)c1ccc3nsnc3c1)CC2 (single isomer, unassigned) [Example 3]
The IC50 of the first is lower: under 50 nM for the first, 1000 to 10000 nM for the second.

First: CC(c1ccc2scnc2c1)N1CCc2cc(NS(=O)(=O)C3CC3)cnc2CC1 (racemic) [Example 120]
Second: CC(C)Oc1ccc2c(c1)CCN(C(C)c1ccc3scnc3c1)CC2 (racemic) [Example 25, 5-(1-(7-isopropoxy-1,2,4,5-tetrahydro-3H-benzo[d]azepin-3-yl)ethyl)benzo[d]thiazole]
The IC50 of the first is lower: under 50 nM for the first, 50 to 200 nM for the second. The first is the more potent here.

Compared with `CC(c1ccc2scnc2c1)N1CCCc2cc(Br)ccc2C1` (racemic) [Example 13, 5-(1-(7-bromo-1,3,4,5-tetrahydro-2H-benzo[c]azepin-2-yl)ethyl)benzo[d]thiazole], `CC(c1ccc2scnc2c1)N1CCc2ccc(S(C)(=N)=O)cc2CC1` (racemic) [Example 37] is lower in IC50: 200 to 1000 nM for the first, under 50 nM for the second. The second is the more potent here.

`CC(c1ccc2scnc2c1)N1CCc2ccc(S(C)(=N)=O)cc2CC1` (centres unmarked) [Example 113] and `COc1ccc2c(c1)CCN(C(C)c1ccc3nsnc3c1)CC2` (centres unmarked) [Example 1, 5-(1-(7-methoxy-1,2,4,5-tetrahydro-3H-benzo[d]azepin-3-yl)ethyl)benzo[c][1,2,5]thiadiazole] cannot be ordered by IC50: under 50 nM for the first, under 50 nM for the second.

First: CC(C)COc1ccc2c(c1)CCN(C(C)c1ccc3scnc3c1)CC2 (single isomer, unassigned) [Example 27, (R)-5-(1-(7-isobutoxy-1,2,4,5-tetrahydro-3H-benzo[d]azepin-3-yl)ethyl)benzo[d]thiazole or (S)-5-(1-(7-isobutoxy-1,2,4,5-tetrahydro-3H-benzo[d]azepin-3-yl)ethyl)benzo[d]thiazole]
Second: COc1ccc2c(c1)CCN(C(C)c1ccc3nccnc3c1)CC2 (racemic) [Example 12, 7-methoxy-3-(1-(quinoxalin-6-yl)ethyl)-2,3,4,5-tetrahydro-1H-benzo[d]azepine]
The IC50 of the first is higher: 200 to 1000 nM for the first, under 50 nM for the second.

First: CSc1ccc2c(c1)CCN(C(C)c1ccc3scnc3c1)CC2 (single isomer, unassigned) [Example 119]
Second: COc1ccc2c(c1)CCN(C(C)c1ccc3c(c1)OCC3)CC2 (single isomer, unassigned) [Example 9]
The IC50 of the first is lower: under 50 nM for the first, 50 to 200 nM for the second. The first is the more potent here.

First: CC(c1ccc2scnc2c1)N1CCc2ccc(-c3cnn(C)c3)cc2CC1 (racemic) [Example 109]
Second: CC(c1ccc2scnc2c1)N1CCCc2cc(-c3cnn(C)c3)ccc2C1 (racemic) [Example 110]
The IC50 of the first is lower: under 50 nM for the first, 200 to 1000 nM for the second.

First: CC(c1ccc2scnc2c1)N1CCCc2ncc([N+](=O)[O-])cc2C1 (racemic) [Example 106]
Second: CC(c1ccc2scnc2c1)N1CCc2ccc(S(C)(=O)=O)cc2CC1 (racemic) [Example 18, 5-(1-(7-(methylsulfonyl)-1,2,4,5-tetrahydro-3H-benzo[d]azepin-3-yl)ethyl)benzo[d]thiazole]
The IC50 of the first is higher: 200 to 1000 nM for the first, under 50 nM for the second. The second is the more potent here.

`CC(c1ccc2scnc2c1)N1CCc2cc(N)cnc2CC1` (racemic) [Example 117] and `CC(=O)Nc1ccc2c(c1)CCN(C(C)c1ccc3scnc3c1)CC2` (racemic) [Example 43] cannot be ordered by IC50: under 50 nM for the first, under 50 nM for the second.

First: Cc1cc(Oc2ccc3c(c2)CCN(C(C)c2ccc4scnc4c2)CC3)ccn1 (racemic) [Example 60]
Second: CC(c1ccc2scnc2c1)N1CCCc2cc(S(C)(=O)=O)ccc2C1 (racemic) [Example 17, 5-(1-(7-(methylsulfonyl)-1,3,4,5-tetrahydro-2H-benzo[c]azepin-2-yl)ethyl)benzo[d]thiazole]
The IC50 of the first is lower: under 50 nM for the first, 200 to 1000 nM for the second. The first is the more potent here.

`Cc1cc(Oc2ccc3c(c2)CCN(C(C)c2ccc4scnc4c2)CC3)nc(C)n1` (racemic) [Example 62] and `CC(c1ccc2scnc2c1)N1CCc2ccc(Oc3cccc(F)n3)cc2CC1` (racemic) [Example 23, 5-(1-(7-((6-fluoropyridin-2-yl)oxy)-1,2,4,5-tetrahydro-3H-benzo[d]azepin-3-yl)ethyl)benzo[d]thiazole] cannot be ordered by IC50: under 50 nM for the first, under 50 nM for the second.

First: COc1ccc2c(c1)CCN(Cc1ccc3nsnc3c1)C(C)C2 (racemic) [Example 28, 5-((7-methoxy-2-methyl-1,2,4,5-tetrahydro-3H-benzo[d]azepin-3-yl)methyl)benzo[c][1,2,5]thiadiazole]
Second: COc1ccc2c(c1)CCN(C(C)c1ccc3scnc3c1)CC2O (racemic) [Example 116]
The IC50 of the first is higher: 1000 to 10000 nM for the first, 50 to 200 nM for the second.
